Reference: PMC5961436, “PKA and PKC Modulators Affect Ion Channel Function and Internalization of Recombinant Alpha1 and Alpha1-Beta Glycine Receptors” (Frontiers in Molecular Neuroscience, 2018)
Like-named read-outs stand apart in the source and are kept apart here.

Tests used:
glycine currents = system: glycine currents; design: method as in Tapia et al., 1997; details: ref Tapia et al., 1997; cited from earlier work
[1] = system: human heteromeric α1-β GlyRs; experiment: Whole-cell patch-clamp of glycine induced currents, modulators in the intracellular buffer, HEK293 cells expressing GlyR α1-β; type: cell-based; details: 0.5 μM modulator in intracellular buffer
Procedure: (§1) HEK293 cells were grown in 10 cm tissue culture Petri dishes in Eagle minimal essential medium (Sigma-Aldrich Chemie GmbH, Munich, Germany) supplemented with 10% FBS (Invitrogen, Karlsruhe, Germany) and penicillin/streptomycin (Sigma-Aldrich Chemie GmbH, Munich, Germany) at 5% CO2 and 37°C in a water saturated atmosphere. For electrophysiological experiments, cells were plated on poly-L lysine treated glass coverslips in 6 cm dishes. Transfection was performed 1 day after cell passage using Gen-Carrier (Epoch Lifesciences, Sugarland, TX, USA): 1.3 μg of receptor DNA, 1.3 μg of green fluorescent protein DNA, and 2.6 μl GenCarrier were used, following the manufacturer’s instructions. Measurements were performed 2–4 days after transfection. HEK293 cells used for protein expression and internalization analysis were transfected using a modified calcium phosphate precipitation method. In brief, a mixture of plasmid DNA, CaCl2 (2.5M), 0.1× TE buffer and 2× HBS (50 mM HEPES, 12 mM glucose, 10 mM KCl, 280 mM NaCl, 1.5 mM Na2HPO4) was applied onto the cells for 6 h. A GlyR α1 to GlyR β ratio of 1:2 was used for co-expression. Transfection medium was replaced by fresh medium after 6 h. Immunocytochemical stainings were always done 24 h after transfection, biotinylation experiments were performed 48 h after transfection.
(§2) using a nonlinear algorithm in Microcal Origin. Here, Iglycine is the current amplitude at a given glycine concentration, Isat is the maximum current amplitude at saturating concentrations of glycine, EC50 is the glycine concentration at half-maximal current responses, and nHill is the Hill coefficient. Currents from each individual cell were normalized to the maximum response at saturating glycine concentrations. Significance of differences between EC50 values were determined using one-way ANOVA with p ≤ 0.05 (*) and p ≤ 0.01 (**) taken as significant. In all experiments, EC50 values were determined for each individual cell from a non-linear fit of dose response data to the logistic equation. An unweighted average ± standard error (SEM) was calculated from all individual EC50 values, without considering the fitting errors.
(§3) For time course analysis, a series of EC50 data was recorded from each cell. The first concentration-response curve, defined as t = 0, was recorded immediately after establishing the whole-cell configuration and positioning the cell in front of the delivery tube. […] Further recordings were made at t = 3 min, t = 6 min and t = 10 min (not attained with all cells). Time-independent recordings were taken at t = 0, and values of EC50 and Imax in the presence of PKA- or PKC modulators were normalized to control (no modulator). For time course analysis, responses were normalized to the control value at t = 0. Patch-clamp experiments were carried out on different dates and using different batches of HEK 293 cells. Since control EC50 values varied between different days of plating and between batches of cells, measurements with kinase modulators were always compared to control measurements recorded on the same day and from the same batch of cells.

[2] = system: GABA- and Gly-gated currents; design: method as in Machu et al., 2006; details: HEK293 cells, ref Machu et al., 2006, cited from earlier work
[3] = system: GABA- and Gly-gated currents; design: method as in Machu et al., 2006; details: oocytes; ref Machu et al., 2006; cited from earlier work
human homomeric α1 GlyRs = experiment: Whole-cell patch-clamp of glycine induced currents, modulators in the intracellular buffer, HEK293 cells expressing GlyR α1; type: cell-based
Procedure: as §1, §2, §3

GlyR α1-β = experiment: Receptor internalization assay (pre-labeled GlyRs, confocal microscopy) in HEK293 cells; type: cell-based, human; details: 200 nM modulator, 15 min, 37°C; untreated cells 1.7 ± 0.4 dots/cell; ± SEM
Procedure: To stain internalized GlyRs, GlyR α1 was cotransfected with GlyR β into HEK293 cells grown on glass cover slips. Internalization experiments were performed 24 h post-transfection. Live cells co-expressing GlyR α1-β receptors were labeled with the α1-specific monoclonal antibody Mab2b (1:500 in Earle’s minimal essential medium for 1 h at 4°C). Earle’s minimal essential medium was supplemented with 10% fetal calf serum, […] GlutaMAX, 100 mM sodium pyruvate, and 50 U/ml penicillin/streptomycin (Thermo Fisher Scientific, Waltham, MA, USA). Mab2b was purchased from Synaptic Systems, Göttingen, Germany. Following three washing steps in phosphate-buffered saline (PBS, pH 7.4), cells were incubated with goat-anti-mouse-Cy3 secondary antibody again for 1 h at 4°C (dilution of secondary antibody 1:500 in Earle’s minimal essential medium, Dianova, Hamburg Germany). Glass cover slips with pre-labeled GlyRs were transferred into a 24-well plate containing 500 μl of Earle’s minimal essential medium with PKA and PKC modulators (200 nM final concentration each; Forskolin, H-89, PMA, Staurosporine aglycon, all from Sigma-Aldrich Chemie GmbH, Munich, Germany). Cells were incubated with modulators for 15 min to allow receptor internalization. Time point zero (0 min) was taken as a negative internalization control to ensure health of HEK293 cells (pre-labeling of GlyRs at 4°C inhibits internalization). Following incubation with PKA and PKC modulators, cells were stained with a second secondary antibody (donkey-anti-goat-Dyelight488, 1:250 in Earle’s minimal essential medium, Dianova, Hamburg, Germany) for 30 min at 4°C to label receptor retained at the cellular surface. Cells were fixed with 4% paraformaldehyde, 4% sucrose in PBS for 15 min at 4°C, washed three times in PBS and stained with 4′,6-diamidino-2-phenylindole (DAPI, Thermo Fisher Scientific, Waltham, MA, USA) to label the cell nuclei for 5 min at 4°C (1:5000 in PBS). Coverslips were washed again with PBS and Aqua Dest and mounted on glass slides using mowiol.
The images were obtained using an inverted Olympus IX81 microscope equipped with an Olympus FV1000 confocal laser scanning system, a FVD10 SPD spectral detector and diode lasers of 495 nm (Alexa488) and 550 nm (Cy3; Olympus, Tokyo, Japan), and an Olympus UPLSAPO 60× (oil, numerical aperture: 1.35) objective. Adobe Photoshop (Adobe, San Jose, CA, USA) or ImageJ (1.51)/Fiji^1 were used for image analysis.

GlyR = system: GlyR; design: method as in Vaello et al., 1994; details: ref Vaello et al., 1994; cited from earlier work
GlyRα1 = system: GlyRα1; design: method as in Huang et al., 2007; details: ref Huang et al., 2007; cited from earlier work
[4] = GlyR α1, 0.5 μM modulator in intracellular buffer
[5] = GlyR α1, 0.5 μM modulator in intracellular buffer, mean ± SEM

CCCCCCCCCCCCCC(=O)O[C@@H]1[C@@H](C)[C@@]2(O)[C@@H](C=C(CO)C[C@]3(O)C(=O)C(C)=C[C@@H]23)[C@@H]2C(C)(C)[C@]12OC(C)=O [PMA, phorbol-12-myristate-13-acetate]
effect on glycine currents (glycine currents): reduce the amplitude of glycine currents | desensitization of glycine induced currents [1]: no effect on receptor desensitization | effect on EC50 compared to control [1]: not statistically significant | Fraction of desensitizing cells ([1]; mean ± SEM): 0.27 ± 0.08 | Imax ([1]; mean ± SEM): 1.26 ± 0.27 nA | modulation of receptors ([2]; 35°C): decreased the function | modulation of receptors ([2]; room temperature): ineffective | peak amplitude of GABA- and Gly-gated currents [3]: large, reproducible decrease | change of Imax at t = 10 min normalized to t = 0 (human homomeric α1 GlyRs; 0.25 μM intracellular modulator, one-way ANOVA): significantly reduced | effect on EC50 (human homomeric α1 GlyRs; 0.25 μM modulator, t = 0): increased EC50 | desensitization of glycine induced currents (human homomeric α1 GlyRs; [4]): no effect on receptor desensitization | effect on EC50 compared to control (human homomeric α1 GlyRs; [4]): increased | Fraction of desensitizing cells (human homomeric α1 GlyRs; [5]): 0.05 ± 0.05 | Imax (human homomeric α1 GlyRs; [5]): 2.30 ± 0.74 nA | internalized receptor (GlyR α1-β): 3.9 ± 0.7 dots/cell | effect on glycinergic currents (GlyR): decreased glycinergic currents | start of receptor internalization (GlyRα1): ≤ 15 min
